This passage reports IC50 results from patent publication US12692261B2, “Substituted heterocyclic compounds and therapeutic uses thereof” (Bayer Aktiengesellschaft, priority 2020, dated 2026).

Assay [1] has as its target T1, full-length human CSNK1A1 (Homo sapiens, UniProt P48729).
T1 construct: N-terminal Glutathion-S-Transferase (GST) and full-length human CSNK1A1; purchased Life Technologies PV4174; host or cells: baculovirus infected insect cells
The experiment in a line: CSNK1A1 High ATP Assay (ADP-Glo, 1 mM ATP).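 Also: 30 min kinase reaction at 22 °C with 100 µM peptide substrate.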 The assay is classed as biochemical. As to conditions: Table 3, read-out: CSNK1A1 high ATP assay IC50 [mol/l] (median). Put shortly:
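Kinase activity taken as ADP generated, quantified by ADP-Glo luminescence after 1 h ATP depletion and 1 h detection at 22 °C. Enzyme is GST–full-length human CSNK1A1 (insect cell-expressed), pre-bound to compound for 15 min, with phosphopeptide substrate and 1 mM ATP.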
For orientation: ADP-Glo turns the ADP formed in a reaction into a luminescent signal.

The target in assay [2] is T2, full-length human CSNK1D (Homo sapiens, UniProt P48730).
T2 construct: N-terminal Glutathion-S-Transferase (GST) and full-length human CSNK1D; purchased Life Technologies PV3665; host or cells: baculovirus infected insect cells
The experiment in a line: CSNK1D Assay (ADP-Glo, 1 μM ATP). The assay is classed as biochemical. As to conditions: Table 3, read-out: CSNK1D IC50 [mol/l] (median). The gist of the method: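 ADP-Glo luminescence reports ADP generated by GST-fused full-length human CSNK1D (insect-cell expressed, about 0.5 ng/μL) acting on a biotinylated peptide at 1 μM ATP. Test compounds were pre-bound to enzyme 15 min at 22° C in 50 mM HEPES pH 7.5.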

T1 sequence (P48729 whole entry): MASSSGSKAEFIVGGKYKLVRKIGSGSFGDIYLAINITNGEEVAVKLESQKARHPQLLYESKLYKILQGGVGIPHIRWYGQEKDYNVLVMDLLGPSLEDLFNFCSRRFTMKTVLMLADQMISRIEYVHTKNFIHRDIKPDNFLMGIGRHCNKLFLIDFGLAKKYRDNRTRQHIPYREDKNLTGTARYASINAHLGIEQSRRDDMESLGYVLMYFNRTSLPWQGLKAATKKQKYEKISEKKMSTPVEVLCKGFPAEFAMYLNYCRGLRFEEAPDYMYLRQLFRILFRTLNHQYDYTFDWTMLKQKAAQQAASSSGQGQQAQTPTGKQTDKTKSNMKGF
T2 sequence (P48730 whole entry): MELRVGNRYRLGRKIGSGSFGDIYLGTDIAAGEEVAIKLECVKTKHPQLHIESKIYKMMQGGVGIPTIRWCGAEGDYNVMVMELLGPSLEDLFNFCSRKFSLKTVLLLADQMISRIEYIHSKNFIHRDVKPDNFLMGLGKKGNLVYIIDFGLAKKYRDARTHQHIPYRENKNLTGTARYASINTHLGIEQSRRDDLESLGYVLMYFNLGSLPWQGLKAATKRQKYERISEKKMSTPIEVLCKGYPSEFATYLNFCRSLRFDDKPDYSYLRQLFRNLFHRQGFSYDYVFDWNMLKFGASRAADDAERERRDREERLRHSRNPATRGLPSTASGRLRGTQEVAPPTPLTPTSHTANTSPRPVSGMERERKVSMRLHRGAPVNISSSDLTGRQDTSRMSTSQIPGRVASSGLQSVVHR

Consider `O=C(Nc1cc(-c2[nH]c3c(OC[C@H]4COCCO4)cc(F)nc3c2-c2ccccn2)ccn1)C(CC(F)F)c1ccc(F)cc1` (mixture of isomers) [Example 50, (2RS)—N-{4-[7-{[(2R)-1,4-dioxan-2-yl]methoxy}-5-fluoro-3-(pyridin-2-yl)-1H-pyrrolo[3,2-b]pyridin-2-yl]pyridin-2-yl}-4,4-difluoro-2-(4-fluorophenyl)butanamide], for which the IC50 in assay [1] was 9.34 nM; in assay [2] it was 9.03 nM.
As to `O=C(Nc1cc(-c2[nH]c3nccnc3c2-c2ccccn2)ccn1)C(CC(F)F)c1ccc(F)cc1` (racemic) [Example 31, (2RS)-4,4-difluoro-2-(4-fluorophenyl)-N-{4-[7-(pyridin-2-yl)-5H-pyrrolo[2,3-b]pyrazin-6-yl]pyridin-2-yl}butanamide], the IC50 in assay [1] was found to be 3.04 nM; in assay [2] it was 7.81 nM.
For `O=C(Nc1cc(-c2[nH]c3ccc(F)nc3c2-c2ccc(F)cn2)ccn1)C(CC(F)F)c1ccc(F)cc1` (single isomer, unassigned; (+)) [Example 109, (+)-4,4-difluoro-N-{4-[5-fluoro-3-(5-fluoropyridin-2-yl)-1H-pyrrolo[3,2-b]pyridin-2-yl]pyridin-2-yl}-2-(4-fluorophenyl)butanamide], the IC50 in assay [1] came out at 3.14 nM; in assay [2], 3.41 nM.
On to `O=C(Nc1cc(-c2[nH]c3c(C4CCCO4)cc(F)nc3c2-c2ccccn2)ccn1)C(CC(F)F)c1ccc(F)cc1` (single isomer, unassigned) [Example 115, (2R or S)-4,4-difluoro-N-(4-{5-fluoro-7-[(2R or S)-oxolan-2-yl]-3-(pyridin-2-yl)-1H-pyrrolo[3,2-b]pyridin-2-yl}pyridin-2-yl)-2-(4-fluorophenyl)butanamide], for which the IC50 amounted to 23.1 nM in assay [1] and 7.02 nM in assay [2].
Take `COc1cnc2c(-c3ccccn3)c(-c3ccnc(NC(=O)C(CC(F)F)c4ccc(F)cc4)c3)[nH]c2n1` (single isomer, unassigned) [Example 102, 4,4-difluoro-2-(4-fluorophenyl)-N-{4-[3-methoxy-7-(pyridin-2-yl)-5H-pyrrolo[2,3-b]pyrazin-6-yl]pyridin-2-yl}butanamide]: the IC50 in assay [1] worked out at 31.1 nM; in assay [2], 75 nM.
The matching figures for `O=C(Nc1cc(-c2[nH]c3cc(F)cnc3c2-c2ccccn2)ccn1)C(CC(F)F)c1ccc(F)cc1` (single isomer, unassigned; (-)) [Example 18, (−)-4,4-difluoro-2-(4-fluorophenyl)-N-{4-[6-fluoro-3-(pyridin-2-yl)-1H-pyrrolo[3,2-b]pyridin-2-yl]pyridin-2-yl}butanamide]: 542 nM and 25.4 nM.
The matching figures for `Cc1ccc2[nH]c(-c3ccnc(NC(=O)C(CC(F)F)c4ccc(F)cc4)c3)c(-c3ccccn3)c2n1` (single isomer, unassigned) [Example 6, 4,4-difluoro-2-(4-fluorophenyl)-N-{4-[5-methyl-3-(pyridin-2-yl)-1H-pyrrolo[3,2-b]pyridin-2-yl]pyridin-2-yl}butanamide]: 2990 nM and 89.7 nM.
The like results for `CC(C)(O)c1cc(F)nc2c(-c3ccccn3)c(-c3ccnc(NC(=O)C(CC(F)F)c4ccc(F)cc4)c3)[nH]c12` (racemic) [Example 98, (2RS)-4,4-difluoro-N-{4-[5-fluoro-7-(2-hydroxypropan-2-yl)-3-(pyridin-2-yl)-1H-pyrrolo[3,2-b]pyridin-2-yl]pyridin-2-yl}-2-(4-fluorophenyl)butanamide] were, in that order, 7.36 nM and 6.84 nM.
